Laboratory results as given in patent US20250109134A1 (Ascentage Pharma (Suzhou) Co., Ltd., priority 2022, published 2025).

How the values were obtained:
Assay type in all cases: physicochemical
[1] = Stability study, solid form by XRPD after open storage at high temperature / high humidity; conditions: summary of forms
Procedure: In the present invention, the XRPD test parameters are set as follows:
Then, the sample flasks were opened to air (sealed with aluminum foil punctured with small holes) and placed in constant temperature and humidity cabinets at high temperature (60° C.), at room temperature and high humidity (RT/92.5% RH), at RT/75% RH, and at 40° C./75% RH for 30 days, respectively, and samples were taken at days 5, 10 and 30 for XRPD and HPLC detection.

[2] = Stability study, content and related substances (TRS, total impurity content) by HPLC
Procedure: In the present invention, the HPLC (high performance liquid chromatography) test parameters are set as follows:
Then, the sample flasks were opened to air (sealed with aluminum foil punctured with small holes) and placed in constant temperature and humidity cabinets at high temperature (60° C.), at room temperature and high humidity ([…]), at RT/75% RH, and at 40° C./75% RH for 30 days, respectively, […]

[3] = XRPD characterization (crystallinity), summary evaluation; conditions: summary of forms
From the text: In the present invention, the XRPD test parameters are set as follows: […]

[4] = Dynamic vapor sorption (DVS) hygroscopicity test; conditions: summary of forms
From the text: In the present invention, the DVS test parameters are set as follows: […]

Row | Compound | Evaluation results: stability [1] | TRS(%) ([2]; 40° C./75RH %-5 d, open storage) | TRS(%) ([2]; 40° C./75RH %- 10 d, open storage) | TRS(%) ([2]; 40° C./75RH %- 30 d, open storage) | TRS(%) ([2]; 60° C.-5 d, open storage) | TRS(%) ([2]; 60° C.-10 d, open storage) | TRS(%) ([2]; 60° C.-30 d, open storage) | TRS(%) ([2]; Initial, TRS = total impurity content, HPLC) | TRS(%) ([2]; RT/90RH %-5 d, open storage) | TRS(%) ([2]; RT/90RH %-10 d, open storage) | TRS(%) ([2]; RT/90RH %-30 d, open storage) | Evaluation results: crystallinity [3] | Evaluation results: hygroscopicity [4]
1 | CC(C)N1Cc2cc(C(F)(F)F)ncc2-c2cnc(NCc3c(F)ccc4c3CCO4)n3cnc(c23)C1=O [Crystalline form B] | Good stability | 0.54 | 0.46 | 0.56 | 0.52 | 0.53 | 0.62 | 0.89 | 0.55 | 0.56 | 0.58 | high crystallinity | –
2 | CC(C)N1Cc2cc(C(F)(F)F)ncc2-c2cnc(NCc3c(F)ccc4c3CCO4)n3cnc(c23)C1=O [Crystalline form G] | – | – | – | – | – | – | – | – | – | – | – | High crystallinity | slight hygroscopicity
